From patent publication US6914045B2, “Glycopeptide antibiotics” (Wyeth Holdings Corporation, priority 2001, dated 2005)
Values after ≈ are worked out from the molar mass of the structure shown.

Key:
Assay in all cases: in vitro antibacterial evaluation, MIC by broth dilution
Type in all cases: cell-based
Staphylococcus sp. = conditions: broth dilution, 18 hours at 35° C.
How it was run: (§1)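 Step 1: dilute antibiotic across 64-0.06 μg/mL in Muller-Hinton II […]. Step 2: inoculate at 5×10^5 CFU/mL.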

Escherichia coli = conditions: 18 hours at 35° C.
How it was run: as §1

Enterococcus sp. = conditions: broth dilution, 18 hours at 35° C.
How it was run: as §1

Streptococcus sp. = conditions: broth dilution, 18 hours at 35° C.
How it was run: as §1

- MIC Coagulase Negative Staphylococcus (GC 4547) (Staphylococcus sp.): <0.5 to 1 µg/mL
- MIC Coagulase Negative Staphylococcus (GC 4548) (Staphylococcus sp.): 0.25-0.25 μg/mL
- MIC Coagulase Negative Staphylococcus (GC 4551) (Staphylococcus sp.): <0.5 to 1 µg/mL
- MIC Coagulase Negative Staphylococcus (GC 6257) (Staphylococcus sp.): 0.25-0.25 μg/mL
- MIC Staphylococcus aureus (ATCC 29213) (Staphylococcus sp.): <0.5 to 1 µg/mL
- MIC Staphylococcus aureus (GC 1131) (Staphylococcus sp.): <0.5 to 1 µg/mL
- MIC Staphylococcus aureus (GC 3051) (Staphylococcus sp.): <0.5 to 1 µg/mL
- MIC Staphylococcus aureus (GC 3053) (Staphylococcus sp.): 1 µg/mL (≈ 0.677 µM)
- MIC Staphylococcus aureus (GC 4541) (Staphylococcus sp.): <0.5 to 1 µg/mL
- MIC Staphylococcus aureus (GC 4542) (Staphylococcus sp.): <0.5 to 1 µg/mL
- MIC Staphylococcus aureus (GC 4544) (Staphylococcus sp.): <0.5 to 1 µg/mL
- MIC Staphylococcus aureus (GC 4545) (Staphylococcus sp.): <0.5 to 1 µg/mL
- MIC Staphylococcus aureus-SMITH (GC 4543) (Staphylococcus sp.): <0.5 to 1 µg/mL
- MIC Staphylococcus aureus (GC 1131) (Staphylococcus sp.; inoculum 5×10^5 CFU/mL, strain GC 1131): <0.5 to 1 µg/mL
- MIC Staphylococcus aureus (ATCC 29213) (Staphylococcus sp.; strain ATCC 29213): <0.5 to 1 µg/mL
- MIC Staphylococcus aureus (GC 3051) (Staphylococcus sp.; strain GC 3051): <0.5 to 1 µg/mL
- MIC Staphylococcus aureus (GC 3053) (Staphylococcus sp.; strain GC 3053): 1 µg/mL (≈ 0.677 µM)
- MIC Staphylococcus aureus (GC 4541) (Staphylococcus sp.; strain GC 4541): <0.5 to 1 µg/mL
- MIC Staphylococcus aureus (GC 4542) (Staphylococcus sp.; strain GC 4542): <0.5 to 1 µg/mL
- MIC Staphylococcus aureus (GC 4544) (Staphylococcus sp.; strain GC 4544): <0.5 to 1 µg/mL
- MIC Staphylococcus aureus (GC 4545) (Staphylococcus sp.; strain GC 4545): <0.5 to 1 µg/mL
- MIC Coagulase Negative Staphylococcus (GC 4547) (Staphylococcus sp.; strain GC 4547): <0.5 to 1 µg/mL
- MIC Coagulase Negative Staphylococcus (GC 4548) (Staphylococcus sp.; strain GC 4548): 0.25-0.25 μg/mL
- MIC Coagulase Negative Staphylococcus (GC 4551) (Staphylococcus sp.; strain GC 4551): <0.5 to 1 µg/mL
- MIC Coagulase Negative Staphylococcus (GC 6257) (Staphylococcus sp.; strain GC 6257): 0.25-0.25 μg/mL
- MIC Staphylococcus aureus-SMITH (GC 4543) (Staphylococcus sp.; strain SMITH GC 4543): <0.5 to 1 µg/mL
- MIC Escherichia coli (ATCC 25922) (Escherichia coli; strain ATCC 25922): 16 to 32 µg/mL
- MIC Escherichia coli (GC 4559) (Escherichia coli; strain GC 4559): 16 µg/mL (≈ 10.8 µM)
- MIC Escherichia coli (GC 4560) (Escherichia coli; strain GC 4560): 1 µg/mL (≈ 0.677 µM)
- MIC Enterococcus avium (GC 4558) (Enterococcus sp.; Enterococcus avium (GC 4558)): 1 to 2 µg/mL
- MIC Enterococcus faecalis (ATCC 29212) (Enterococcus sp.; Enterococcus faecalis (ATCC 29212)): 1 to 2 µg/mL
- MIC Enterococcus faecalis (GC 2242) (Enterococcus sp.; Enterococcus faecalis (GC 2242)): <0.5 to 2 µg/mL
- MIC Enterococcus faecalis (GC 2691) (Enterococcus sp.; Enterococcus faecalis (GC 2691)): 1 to 2 µg/mL
- MIC Enterococcus faecalis (GC 3059) (Enterococcus sp.; Enterococcus faecalis (GC 3059)): 1 to 2 µg/mL
- MIC Enterococcus faecalis (GC 4552) (Enterococcus sp.; Enterococcus faecalis (GC 4552)): 1 to 2 µg/mL
- MIC Enterococcus faecalis (GC 4553) (Enterococcus sp.; Enterococcus faecalis (GC 4553)): 1 to 2 µg/mL
- MIC Enterococcus faecalis (GC 4554) (Enterococcus sp.; Enterococcus faecalis (GC 4554)): 1 to 2 µg/mL
- MIC Enterococcus faecalis (GC 6189) (Enterococcus sp.; Enterococcus faecalis (GC 6189)): 1 to 2 µg/mL
- MIC Enterococcus faecium (GC 2243) (Enterococcus sp.; Enterococcus faecium (GC 2243)): 1 µg/mL (≈ 0.677 µM)
- MIC Enterococcus faecium (GC 4556) (Enterococcus sp.; Enterococcus faecium (GC 4556)): <0.5 to 1 µg/mL
- MIC Enterococcus faecium (GC 4557) (Enterococcus sp.; Enterococcus faecium (GC 4557)): <0.5 to 2 µg/mL
- MIC Enterococcus faecalis (ATCC 29212) (Enterococcus sp.; strain ATCC 29212): 1 to 2 µg/mL
- MIC Enterococcus faecalis (GC 2242) (Enterococcus sp.; strain GC 2242): <0.5 to 2 µg/mL
- MIC Enterococcus faecium (GC 2243) (Enterococcus sp.; strain GC 2243): 1 µg/mL (≈ 0.677 µM)
- MIC Enterococcus faecalis (GC 2691) (Enterococcus sp.; strain GC 2691): 1 to 2 µg/mL
- MIC Enterococcus faecalis (GC 3059) (Enterococcus sp.; strain GC 3059): 1 to 2 µg/mL
- MIC Enterococcus faecalis (GC 4552) (Enterococcus sp.; strain GC 4552): 1 to 2 µg/mL
- MIC Enterococcus faecalis (GC 4553) (Enterococcus sp.; strain GC 4553): 1 to 2 µg/mL
- MIC Enterococcus faecalis (GC 4554) (Enterococcus sp.; strain GC 4554): 1 to 2 µg/mL
- MIC Enterococcus faecium (GC 4556) (Enterococcus sp.; strain GC 4556): <0.5 to 1 µg/mL
- MIC Enterococcus faecium (GC 4557) (Enterococcus sp.; strain GC 4557): <0.5 to 2 µg/mL
- MIC Enterococcus avium (GC 4558) (Enterococcus sp.; strain GC 4558): 1 to 2 µg/mL
- MIC Enterococcus faecalis (GC 6189) (Enterococcus sp.; strain GC 6189): 1 to 2 µg/mL
- MIC Streptococcus agalactiae (GC 4564) (Streptococcus sp.; Streptococcus agalactiae (GC 4564)): <0.06 µg/mL
- MIC Streptococcus pneumoniae (ATCC 6301) (Streptococcus sp.; Streptococcus pneumoniae (ATCC 6301)): <0.06 µg/mL
- MIC Streptococcus pneumoniae (GC 1894) (Streptococcus sp.; Streptococcus pneumoniae (GC 1894)): <0.06 µg/mL
- MIC Streptococcus pneumoniae (GC 4565) (Streptococcus sp.; Streptococcus pneumoniae (GC 4565)): <0.06 µg/mL
- MIC Streptococcus pyogenes (GC 4563) (Streptococcus sp.; Streptococcus pyogenes (GC 4563)): <0.06 µg/mL
- MIC Streptococcus pneumoniae (ATCC 6301) (Streptococcus sp.; strain ATCC 6301): <0.06 µg/mL
- MIC Streptococcus pneumoniae (GC 1894) (Streptococcus sp.; strain GC 1894): <0.06 µg/mL
- MIC Streptococcus pyogenes (GC 4563) (Streptococcus sp.; strain GC 4563): <0.06 µg/mL
- MIC Streptococcus agalactiae (GC 4564) (Streptococcus sp.; strain GC 4564): <0.06 µg/mL
- MIC Streptococcus pneumoniae (GC 4565) (Streptococcus sp.; strain GC 4565): <0.06 µg/mL
Compound: CC(c1ccccc1)C1NC(=O)CNC(=O)C(CO)NC(=O)C(C(O)C2CNC(=N)N2C2OC(CO)C(O)C(O)C2O)NC(=O)C(C(O)C2CNC(=N)N2)NC(=O)C(Cc2ccc(OC3OC(CO)C(OC4OC5COC(Cc6ccc(Br)cc6)OC5C(O)C4O)C(O)C3O)cc2)NC1=O (stereo not drawn) [Example 118, Cyclo[glycyl-β-methylphenylalanyl-O-[4-O-[4,6-O-(4-bromophenethylidene)hexopyranosyl]-hexopyranosyl]tyrosyl-3-(2-iminoimidazolidin-4-yl)seryl-3-(3-hexopyranosyl-2-iminoimidazolidin-4-yl)serylseryl]]
